From US7012089B2, “[1,4]Diazocino[7,8,1-hi]indole derivatives as antipsychotic and antiobesity agents” (Wyeth, priority 2002, dated 2006)
pEC50, pKd, pKi: −log10 of the molar value. Where a name gives a salt, the structure may show the parent alone. Read-outs that look alike come from different tables or passages of the source.

Columns and labels:
[1] = molecular target: T1, human 5-hydroxytryptamine-2C (h-5-HT2C) receptor (Homo sapiens, UniProt P28335); test: [125I]DOI binding to membranes of CHO cells expressing the h-5-HT2C receptor; conditions: for Ki: 5-HT2c Affinity KI (nM)
T1 sequence (P28335 33-458): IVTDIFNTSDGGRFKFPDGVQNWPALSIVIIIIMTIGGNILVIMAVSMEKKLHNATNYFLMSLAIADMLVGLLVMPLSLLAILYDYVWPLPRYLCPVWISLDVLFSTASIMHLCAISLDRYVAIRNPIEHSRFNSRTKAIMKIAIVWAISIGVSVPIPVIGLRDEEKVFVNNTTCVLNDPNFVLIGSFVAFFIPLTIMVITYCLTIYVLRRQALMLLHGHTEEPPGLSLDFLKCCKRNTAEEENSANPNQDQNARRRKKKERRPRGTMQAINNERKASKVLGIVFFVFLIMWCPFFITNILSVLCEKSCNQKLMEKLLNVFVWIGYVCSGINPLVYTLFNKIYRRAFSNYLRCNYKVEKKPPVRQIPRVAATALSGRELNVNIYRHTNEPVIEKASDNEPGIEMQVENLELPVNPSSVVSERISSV

human 5-HT2C receptor = molecular target: T2, human 5-HT2C receptor (Homo sapiens, UniProt P28335); test: 5-HT2C receptor-stimulated calcium mobilization (FLIPR) in CHO cells; assay type: cell-based; conditions: for Emax: CHO, read-out: 5-HT2C Function Emax (%)
T2 sequence (P28335 33-458): T1 sequence (P28335 33-458)

[2] = displacement of [125I]DOI, CHO cell membranes
[3] = calcium mobilization, CHO cells stably expressing human 5-HT2C, read-out: 5-HT2C Function EC50

| SMILES | Ki [1, 2] | pEC50 (human 5-HT2C receptor) | Emax (human 5-HT2C receptor) | other results |
| --- | --- | --- | --- | --- |
| c1cc2c3c(c1)c1c(n3CCNCC2)CCC1 (as salt: fumarate) [Example 2, 2,3,4,5,10,11-Hexahydro-1H,9H-cyclopenta[b][1,4]diazocino[7,8,1-hi]indole] | – | – | – | melting point: 180 to 183 °C |
| CN1CCc2cccc3c2N(CC1)C1CCCC31 (centres unmarked) (as salt: fumarate) [Example 3, 3-Methyl-2,3,4,5,9,10,11,11a-octahydro-1H,8bH-cyclopenta[b][1,4]diazocino[7,8,1-hi]indole] | – | – | – | melting point: 159 to 161 °C |
| c1cc2c3c(c1)c1c(n3CCNCC2)CCCC1 (as salt: fumarate) [Example 6, 2,3,4,5,9,10,11,12-Octahydro-1H-[1,4]diazocino[7,8,1-jk]carbazole] | – | – | – | melting point: 174 to 176 °C |
| CN1CCc2cccc3c2N(CC1)C1CCCCC31 (centres unmarked) (as salt: fumarate) [Example 7, 3-Methyl-2,3,4,5,8b,9,10,11,12,12a-decahydro-1H-[1,4]diazocino[7,8,1-jk]carbazole] | – | – | – | melting point: 150 to 153 °C |
| c1cc2c3c(c1)C1CCCCC1N3CCNCC2 (centres unmarked) (as salt: fumarate) [Example 8, 2,3,4,5,8b,9,10,11,12,12a-Decahydro-1H-[1,4]diazocino[7,8,1-jk]carbazole] | – | – | – | melting point: 169 to 171 °C |
| CN1CCc2cccc3c4c(n(c23)CC1)CCCCC4 (as salt: fumarate) [Example 9, 3-Methyl-2,3,4,5,10,11,12,13-octahydro-1H,9H-cyclohepta[b][1,4]diazocino[7,8,1-hi]indole] | – | – | – | melting point: 190 to 192 °C |
| c1cc2c3c(c1)c1c(n3CCNCC2)CCCCC1 (as salt: fumarate) [Example 10, 2,3,4,5,10,11,12,13-Octahydro-1H,9H-cyclohepta[b]1,4]diazocino[7,8,1-hi]indole] | – | – | – | melting point: 216 to 218 °C |
| c1cc2c3c(c1)[C@H]1CCC[C@H]1N3CCNCC2 (single isomer, unassigned) [Example 46, (−)-(8bR*,11aR*)-2,3,4,5,9,10,11,11a-Octahydro-1H,8bH-cyclopenta[b][1,4]diazocino[7,8,1-hi]indole] | 19 nM | 7.42 | 70% | – |
| c1cc2c3c(c1)[C@H]1CCCC[C@H]1N3CCNCC2 (single isomer, unassigned) [Example 48, (−)-(8bR*,12aR*)-2,3,4,5,8b,9,10,11,12,12a-Decahydro-1H[1,4]diazocino[7,8,1-jk]carbazole] | 17 nM | 7.38 | 70% | – |
| c1cc2c3c(c1)c1c(n3CCNCC2)CCC1 [Example 2, 2,3,4,5,10,11-Hexahydro-1H,9H-cyclopenta[b][1,4]diazocino[7,8,1-hi]indole] | 38 nM | 7.70 | 80% | – |
| CN1CCc2cccc3c2N(CC1)C1CCCC31 (centres unmarked) [Example 3, 3-Methyl-2,3,4,5,9,10,11,11a-octahydro-1H,8bH-cyclopenta[b][1,4]diazocino[7,8,1-hi]indole] | 41 nM | 7.43 | 50% | – |
| c1cc2c3c(c1)C1CCCC1N3CCNCC2 (centres unmarked) [Example 4, 2,3,4,5,9,10,11,11a-Octahydro-1H,8bH-cyclopenta[b][1,4]diazocino[7,8,1-hi]indole] | 31 nM | 7.74 | 90% | – |
| c1cc2c3c(c1)c1c(n3CCNCC2)CCCC1 [Example 6, 2,3,4,5,9,10,11,12-Octahydro-1H-[1,4]diazocino[7,8,1-jk]carbazole] | 4 nM | 8.22 | 80% | – |
| CN1CCc2cccc3c2N(CC1)C1CCCCC31 (centres unmarked) [Example 7, 3-Methyl-2,3,4,5,8b,9,10,11,12,12a-decahydro-1H-[1,4]diazocino[7,8,1-jk]carbazole] | 24 nM | 7.13 | 60% | – |
| c1cc2c3c(c1)C1CCCCC1N3CCNCC2 (centres unmarked) [Example 8, 2,3,4,5,8b,9,10,11,12,12a-Decahydro-1H-[1,4]diazocino[7,8,1-jk]carbazole] | 22 nM | 7.74 | 80% | – |
| CN1CCc2cccc3c4c(n(c23)CC1)CCCCC4 [Example 9, 3-Methyl-2,3,4,5,10,11,12,13-octahydro-1H,9H-cyclohepta[b][1,4]diazocino[7,8,1-hi]indole] | 19 nM | – | 25% | pEC50 (human 5-HT2C receptor; [3]): 6.56 |
| c1cc2c3c(c1)c1c(n3CCNCC2)CCCCC1 [Example 10, 2,3,4,5,10,11,12,13-Octahydro-1H,9H-cyclohepta[b]1,4]diazocino[7,8,1-hi]indole] | 38 nM | – | 90% | pEC50 (human 5-HT2C receptor; [3]): 6.81 |
| Clc1ccc2c3c1CCNCCN3C1CCCCCC21 (centres unmarked) [Example 22, 6-Chloro-2,3,4,5,9,10,11,12,13,13a-decahydro-1H,8bH-cyclohepta[b][1,4]diazocino[7,8,1-hi]indole] | 50 nM | – | 60% | pEC50 (human 5-HT2C receptor; [3]): 6.49 |

| SMILES | Ki [1, 2] | pEC50 (human 5-HT2C receptor) | Emax (human 5-HT2C receptor) | other results |
| --- | --- | --- | --- | --- |
| CN1CCc2ccc(F)c3c2N(CC1)C1CCCC31 (centres unmarked) [Example 26, 8-Fluoro-3-methyl-2,3,4,5,9,10,11,11a-octahydro-1H,8bH-cyclopenta[b][1,4]diazocino[7,8,1-hi]indole] | – | – | – | pKi ([1]; read-out: 5-HT2c Affinity KI): 6.75 |
| CN1CCc2ccc(F)c3c2N(CC1)C1CCCCC31 (centres unmarked) [Example 27, 8-Fluoro-3-methyl-2,3,4,5,8b,9,10,11,12,12a-decahydro-1H-[1,4]diazocino[7,8,1-jk]carbazole] | 13 nM | – | 70% | pEC50 (human 5-HT2C receptor; [3]): 6.58 |
| Fc1ccc2c3c1c1c(n3CCNCC2)CCC1 [Example 28, 8-Fluoro-2,3,4,5,10,11-hexahydro-1H,9H-cyclopenta[b][1,4]diazocino[7,8,1-hi]indole] | 12 nM | 7.44 | 80% | – |
| Fc1ccc2c3c1c1c(n3CCNCC2)CCCC1 [Example 29, 8-Fluoro-2,3,4,5,9,10,11,12-octahydro-1H-[1,4]diazocino[7,8,1-jk]carbazole] | 1 nM | 8.10 | 90% | – |
| Fc1ccc2c3c1C1CCCC1N3CCNCC2 (centres unmarked) [Example 30, 8-Fluoro-2,3,4,5,9,10,11,11a-octahydro-1H,8bH-cyclopenta[b][1,4]diazocino[7,8,1-hi]indole] | 16 nM | 7.44 | 90% | – |
| Fc1ccc2c3c1C1CCCCC1N3CCNCC2 (centres unmarked) [Example 31, 8-Fluoro-2,3,4,5,8b,9,10,11,12,12a-decahydro-1H[1,4]diazocino[7,8,1-jk]carbazole] | 8 nM | 7.06 | 60% | – |
| CN1CCc2ccc(Cl)c3c4c(n(c23)CC1)CCC4 [Example 34, 8-Chloro-3-methyl-2,3,4,5,10,11-hexahydro-1H,9H-cyclopenta[b][1,4]diazocino[7,8,1-hi]indole] | 15 nM | 7.09 | 40% | – |
| CN1CCc2ccc(Cl)c3c4c(n(c23)CC1)CCCC4 [Example 35, 8-Chloro-3-methyl-2,3,4,5,9,10,11,12-octahydro-1H-[1,4]diazocino[7,8,1-jk]carbazole] | 11 nM | – | 50% | pEC50 (human 5-HT2C receptor; [3]): 6.54 |
| CN1CCc2ccc(Cl)c3c2N(CC1)C1CCCC31 (centres unmarked) [Example 36, 8-Chloro-3-methyl-2,3,4,5,9,10,11,11a-octahydro-1H,8bH-cyclopenta[b][1,4]diazocino[7,8,1-hi]indole] | 12 nM | – | 40% | pEC50 (human 5-HT2C receptor; [3]): 6.33 |
| CN1CCc2ccc(Cl)c3c2N(CC1)C1CCCCC31 (centres unmarked) [Example 37, 8-Chloro-3-methyl-2,3,4,5,8b,9,10,11,12,12a-decahydro-1H-[1,4]diazocino[7,8,1-jk]carbazole] | 11.6 nM | – | 70% | pEC50 (human 5-HT2C receptor; [3]): 6.18 |
| Clc1ccc2c3c1c1c(n3CCNCC2)CCC1 [Example 38, 8-Chloro-2,3,4,5,10,11-hexahydro-1H,9H-cyclopenta[b][1,4]diazocino[7,8,1-hi]indole] | 9.3 nM | 7.06 | 90% | – |
| Clc1ccc2c3c1c1c(n3CCNCC2)CCCC1 [Example 39, 8-Chloro-2,3,4,5,9,10,11,12-octahydro-1H-[1,4]diazocino[7,8,1-jk]carbazole] | 2 nM | 7.32 | 80% | – |
| Clc1ccc2c3c1C1CCCC1N3CCNCC2 (centres unmarked) [Example 40, 8-Chloro-2,3,4,5,9,10,11,11a-octahydro-1H,8bH-cyclopenta[b][1,4]diazocino[7,8,1-hi]indole] | 20 nM | 7.09 | 80% | – |
| Clc1ccc2c3c1C1CCCCC1N3CCNCC2 (centres unmarked) [Example 41, 8-Chloro-2,3,4,5,8b,9,10,11,12,12a-decahydro-1H-[1,4]diazocino[7,8,1-jk]carbazole] | 7.5 nM | 7.04 | 90% | – |
| CN1CCc2cccc3c2N(CC1)C1CCSCC31 (centres unmarked) [Example 44, 3-Methyl-2,3,4,5,9,10,11,12-octahydro-1H,9H-[1,4]diazocino[7,8,1-hi]thiopyrano[4,3-b]indole] | – | – | – | pKi ([1]; read-out: 5-HT2c Affinity KI): 5.76 |
| CSc1ccc2c(c1)C(N1CCN(C)CC1)Cc1ccccc1S2 (centres unmarked) [Methiothepin, reference compound] | – | – | – | pKi ([1]; reference compounds, displacement of [125I]DOI, CHO cell membranes, read-out: Ki (95% confidence interval)): 8.34 |
| COc1cc(CC(C)N)c(OC)cc1I (centres unmarked) [[^125I] DOI, reference compound] | – | – | – | pKd ([1]; saturation binding with increasing concentrations of [125I]DOI, read-out: dissociation constant, KD): 9.40 |
